Test results reported in PubChem BioAssay (NCI).
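Results reflect a 48-hour exposure of cells in 96-well plates to compound at five concentrations. The concentration for 50% growth inhibition is given as GI50. TGI marks complete inhibition of growth.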

Assays:
Assay in all cases: growth of human tumour cells (NCI), 48 h
MOLT-4 leukemia = test system: MOLT-4 leukemia
SNB-19 CNS = test system: SNB-19 CNS
ACHN renal = test system: ACHN renal
OVCAR-5 ovarian = test system: OVCAR-5 ovarian
HOP-92 NSCLC = test system: HOP-92 NSCLC
SW-620 colon = test system: SW-620 colon
RXF 393 renal = test system: RXF 393 renal
LOX IMVI melanoma = test system: LOX IMVI melanoma

Row | SMILES | GI50 (MOLT-4 leukemia) [µM] | TGI (MOLT-4 leukemia) [µM] | GI50 (SNB-19 CNS) [µM] | TGI (SNB-19 CNS) [µM] | GI50 (ACHN renal) [µM] | TGI (ACHN renal) [µM] | GI50 (OVCAR-5 ovarian) [µM] | TGI (OVCAR-5 ovarian) [µM] | GI50 (HOP-92 NSCLC) [µM] | TGI (HOP-92 NSCLC) [µM] | GI50 (SW-620 colon) [µM] | TGI (SW-620 colon) [µM] | GI50 (RXF 393 renal) [µM] | TGI (RXF 393 renal) [µM] | GI50 (LOX IMVI melanoma) [µM] | TGI (LOX IMVI melanoma) [µM]
1 | Cc1ccc2c(-c3ccnc(Nc4cccc(C(F)(F)F)c4)n3)c(-c3ccccc3)nn2n1 | > 25 | > 25 | > 17.9 | > 25 | 1.97 | > 25 | 10.2 | 24.6 | > 25 | > 25 | 7.81 | > 22.5 | 2.95 | 8.57 | 4.92 | > 17.2
2 | COC(=O)NC1=Nc2ccccc2C(=O)NN1 |  | > 100 |  | > 100 |  | > 100 |  | > 100 |  | > 100 |  | > 100 |  | > 100 |  | > 100
3 | C=CCc1cc(O)ccc1O | 5.87 | 68.9 | > 100 | > 100 | 15.1 | 28.3 | 26.7 | > 100 | 42.4 | > 100 | 21.6 | 44.8 | 26.3 | > 100 | 17 | 48.8
4 | C=C(CC)C(=O)c1ccc(OCC(=O)O)c(Cl)c1Cl |  | > 62.2 |  | 31.3 |  | > 72.9 |  | > 62.6 |  | 25.2 |  | 34.2 |  | 34.2 |  | 29.7
5 | CCc1nc(N)nc(N)c1-c1ccc(N2CCNCC2)c([N+](=O)[O-])c1 |  | > 100 |  | > 100 |  | > 100 |  | > 100 |  | > 100 |  | > 100 |  | > 100 |  | > 66.1
6 | COc1cc2c3c(n(CCCNCCCCN)c(=O)c2cc1OC)-c1cc2c(cc1C3=O)OCO2 |  | > 19.6 | 2.65 | 18.8 | 0.163 | 16.6 | 13.5 | 41 | 0.738 | 3.8 | 1.4 | 27.3 | 0.301 | 11.4 | 0.226 | 10.1
7 | Cn1ccc(S(=O)(=O)N2CCC[C@H](Nc3nccc(-c4c(-c5cccc(O)c5)nc5occn45)n3)C2)n1 | 17.4 | 63.7 | 46.4 | > 100 | 7.19 | > 100 | 24.9 | > 100 | 7.64 | 52.9 | 15.9 | > 64.2 | 4.47 | 18.4 | 2.87 | 18.7
8 | N=C1C(c2nc3ccccc3c(=O)[nH]2)=C(O)CN1c1cccc(Cl)c1 | 4.51 | > 100 | 6.74 | > 100 | 3.4 | > 100 | > 30.8 | > 100 | > 100 | > 100 | 3.28 | > 100 | 2.6 | > 27.3 | 5.68 | > 100
9 | CCN1C[C@@H](C)n2c(c(O)c3c(=O)n(Cc4ccc(F)c(Cl)c4)nc(C(=O)NC)c32)C1=O | 4.18 | > 100 | 3.37 | > 100 | 2.85 | 8.87 | 3.86 | > 100 | 1.7 | 4.91 | 3.11 | > 100 |  |  | 3.13 | 18
10 | COc1cc(C(=O)/C=C/c2cccnc2Nc2ccc(Cl)cc2)cc(OC)c1OC | 2.55 | 10.5 | 1.52 | 2.88 | 1.77 | 3.18 | 1.74 | 3.32 | 0.519 | 2.14 | 0.955 | 2.47 | 1.26 | 2.61 | 1.27 | 2.59
11 | CCN(CC)Cc1cc(Nc2ccnc3ccc(OC)cc23)ccc1O | 2.98 | 16.8 | 8.4 | > 100 | 2.82 | 9.5 | 3.95 | 28 | 2.04 | 7.13 | 3.6 | 19.7 | 2.79 | 10.9 | 2.36 | 6.48
12 | Oc1ccc(/C=N/NC(=S)Nc2ccccc2)nc1 | 3.26 | > 100 | 1.93 | > 100 | 0.552 | > 100 | 7.09 | > 100 | 0.439 | 6.92 | 2.07 | > 100 | 0.667 | 4.91 | 0.464 | 16.6
13 | N#Cc1c(-c2ccccc2)nc(SCC(O)CN2CCOCC2)nc1N1CCOCC1 (configuration not stated) | 16.1 | > 100 | 15 | 94.8 | 10.8 | > 100 | 19 | > 100 | 0.442 | 2.23 | 51.9 | > 100 | 5.55 | 31.8 | 17.6 | > 100
14 | CCOC(=O)C(Cc1ccccc1)n1c(O)c(/C=N/c2ncc(Cc3ccc(Cl)cc3Cl)s2)sc1=S (configuration not stated) | 3.29 | > 100 | 5.05 | > 100 | 2.92 | > 100 | 4.2 | > 100 | 1.65 | 6.22 | 3.45 | > 100 | 2.56 | 6.7 | 3.44 | 16.5
15 | COC(=O)C1C(=O)C(C(=O)OC)C2CCC1N2C (configuration not stated) |  | > 57.9 |  | > 100 |  | > 100 |  | > 100 |  | > 77.3 |  | > 100 |  | > 100 |  | > 83.1
16 | Cc1c(Br)c(Br)c2c3c1nc(N1CCNCC1)n3CCC2 |  |  | 1.56 | 3.01 | 1.39 | 2.71 | 1.72 | 3.54 | 0.0744 | 1.12 | 1.55 | 3.09 | 1.7 | 3.41 | 1.49 | 2.94
17 | CC1(C)CCC2(C(=O)O)C(O)CC3(C)C(=CCC4C5(C)CCC(OC6OCC(O)C(O)C6OC6OCC(O)C(O)C6OC6OCC(O)C(OC7OC(CO)C(O)C(O)C7O)C6O)C(C)(C)C5CCC43C)C2C1 (configuration not stated) |  |  |  | 43.6 |  | > 100 |  | > 100 |  | 82.7 |  | > 100 |  | 59.1 |  | > 100
18 | O=C(NNC1=NS(=O)(=O)c2ccccc2N1c1ccccc1)c1cnccn1 | > 100 | > 100 | > 100 | > 100 | > 100 | > 100 |  |  | > 100 | > 100 | > 100 | > 100 | > 100 | > 100 | > 100 | > 100
19 | CC[C@]1(O)CC2CN(CCc3c([nH]c4ccccc34)C(C(=O)OC)(c3cc4c(cc3OC)N(C=O)[C@H]3[C@@](O)(C(=O)OC)[C@H](OC(C)=O)[C@]5(CC)[C@@H]6C[C@@H]6CN6CC[C@]43[C@@H]65)C2)C1 (some centres not stated) | < 0.00325 | 0.339 | < 0.00325 | > 32.5 | 0.0139 | > 23.5 | < 0.00325 | > 32.5 | < 0.00325 | 0.0121 | < 0.00325 | > 32.5 |  |  | < 0.00325 | > 26
20 | c1ccc(C2=Nc3ccccc3N3CNN=C23)cc1 | 24.2 | > 100 | > 100 | > 100 | > 100 | > 100 | > 100 | > 100 | 15 | 51.5 | > 100 | > 100 |  |  | > 100 | > 100
21 | COc1cccc(N2C(=N)/C(=C3\Nc4ccccc4S3)CC2=O)c1 | 2.4 | > 100 | 18.9 | > 100 | 4.93 | > 100 | > 100 | > 100 |  |  | 4.87 | > 100 | 2.61 | 11.1 | 3.21 | > 100
22 | O=C(CCl)N1CCN(c2ccccc2)CC1 |  | > 100 |  | > 100 |  | 41.1 |  | 34.9 |  | 36.2 |  | 54.3 |  | 35.2 |  | 
23 | CN(C)C/C=C/C(=O)Nc1ccc(C(=O)Nc2cccc(Nc3ncc(Cl)c(-c4c[nH]c5ccccc45)n3)c2)cc1 | 0.032 | > 100 | 0.0272 | > 35.3 | 0.0957 |  | 0.0531 |  |  |  | 0.031 | 11.3 | 0.0157 | 0.0397 | 0.0133 | 0.0856
24 | N#Cc1ncc(-c2ccc(C(F)(F)F)cc2)c(NC2CCCCCC2)n1 | 7.42 | > 100 | 15.3 | > 100 | 24 | > 100 | > 100 | > 100 |  |  | 8.64 | > 100 | 5.12 | > 100 |  | 
25 | O=C1NC(c2cccc3ccccc23)Nc2ccc(Cl)cc21 (configuration not stated) |  | 0.00987 |  | > 100 |  | 10.7 | 0.0291 | 0.085 |  |  |  | 17.2 |  | 0.0261 |  | 14.6
26 | O=C(CC(O)(C(F)(F)F)C(F)(F)F)c1cccs1 |  | > 10 |  | > 10 |  | > 10 |  |  |  | > 10 |  | > 10 |  |  |  | > 10
